One assay concerns PV 5′ UTR RNA. In kind it is binding, poliovirus.
The subject of assay [1] is IRES initiated translation. The following applies: cited from earlier work.

AALEAKICHQIEYYQGDQ [Peptide 771]: the “binding to PV 5′ UTR RNA relative to wild-type La antigen” value with PV 5′ UTR RNA is recorded as “dramatically reduced binding”. With AALEAKICHQIEYYFGDF [LAP], the “inhibition of IRES initiated translation” value in assay [1] was “inhibit this translation”. For AALEAKICHQIEQQFGDF [Peptide 772], in the assay with PV 5′ UTR RNA, the “binding to PV 5′ UTR RNA relative to wild-type La antigen” value is “dramatically reduced binding”.
